Assay results taken from US20250163064A1, “QUINAZOLINE COMPOUNDS AND USES THEREOF AS INHIBITORS OF MUTANT KRAS PROTEINS” (AMGEN INC., priority 2022, published 2025).
Like-named read-outs stand apart in the source and are kept apart here.

Tests used:
[1] = test system: Phosphorylation of ERK1/2 in AsPC-1 cells; test: Phospho-ERK1/2 MSD Assay; assay type: cell-based
Summary of the method: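 AsPC-1 cells in 10% FBS RPMI 1640 were treated with a compound dose titration for 2 h at 37° C, then lysed in RIPA buffer with protease and phosphatase inhibitors. Phospho-ERK1/2 was measured by MSD whole-cell lysate immunoassay, and IC50 was derived by 4-parameter logistic fit.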

[2] = biological target: GDP-bound KRAS protein (aa 1-169), G12D and C118A; SOS-mediated nucleotide exchange (Homo sapiens (Human), UniProt P01116, C118A/G12D); test: KRAS G12D Coupled Nucleotide Exchange Assay; assay type: biochemical; conditions: 2 h compound pre-incubation, GTP, cRAF AlphaScreen
Chain of GDP-bound KRAS protein (aa 1-169), G12D and C118A; SOS-mediated nucleotide exchange (P01116 other isoform, or with tags, fused parts or gaps G12D/C118A): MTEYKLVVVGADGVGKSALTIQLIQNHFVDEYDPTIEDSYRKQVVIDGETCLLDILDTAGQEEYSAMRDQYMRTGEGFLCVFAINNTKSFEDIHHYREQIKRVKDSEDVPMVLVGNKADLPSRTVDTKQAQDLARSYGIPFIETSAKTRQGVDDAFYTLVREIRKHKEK
Summary of the method: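 GDP-loaded KRAS (aa 1-169, G12D/C118A, N-His) preincubated 2 h with titrated compound in pH 7.4 HEPES/MgCl2/Triton buffer. SOS (aa 564-1049) plus GTP then added for 30 min. AlphaScreen readout; IC50 from 4-parameter logistic fit.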

[3] = biological target: His-tagged KRAS G12D protein (Homo sapiens (Human), UniProt P01116, G12D); test: KRAS G12D TR-FRET Assay; assay type: binding; conditions: biotinylated KRPep-2d, 10 μM GDP
Chain of His-tagged KRAS G12D protein (P01116-2 other isoform, or with tags, fused parts or gaps G12D): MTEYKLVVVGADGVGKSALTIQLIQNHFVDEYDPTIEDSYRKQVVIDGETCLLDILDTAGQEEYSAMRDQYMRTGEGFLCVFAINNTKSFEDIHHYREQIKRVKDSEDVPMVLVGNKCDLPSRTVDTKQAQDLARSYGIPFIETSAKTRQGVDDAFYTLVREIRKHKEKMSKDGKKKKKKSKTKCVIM
Summary of the method: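 His-KRAS G12D (20 nM working solution) preincubated with compound 30 min at rt in HEPES pH 7.4 buffer with 10 μM GDP, then biotinylated KRPep-2d added for 1 h. Eu-anti-His/streptavidin-d2 TR-FRET 665/615 ratio; IC50 from 4-parameter logistic fit.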

[4] = Homo sapiens, ASPC1, 2 h, read-out: 2 h p-ERK (AsPC-1 cells), IC50 (μM), AsPC-1 cells, 2 h compound treatment
[5] = read-out: 2 h p-ERK (AsPC-1 cells), IC50, AsPC-1 cells, 2 h compound treatment

| Structure (SMILES) | IC50 [1, 4] [µM] | IC50 [2] [µM] | IC50 [3] [µM] | IC50 [1, 5] [µM] |
| --- | --- | --- | --- | --- |
| C[C@@]1(CO)CCCN(c2nc(OC[C@@]34CCCN3C[C@H](F)C4)nc3c(F)c(-c4ccc(F)c5sc(N)c(C#N)c45)c(Cl)cc23)C1 [Example 43, 2-Amino-4-(6-chloro-8-fluoro-2-(((2R,7aS)-2-fluorotetrahydro-1H-pyrrolizin-7a(5H)-yl)methoxy)-4-((R)-3-(hydroxymethyl)-3-methylpiperidin-1-yl)quinazolin-7-yl)-7-fluorobenzo[b] thiophene-3-carbonitrile] | 1.16 | 0.018 | 0.015 |  |
| C[C@@]1(CO)CCCN1c1nc(OC[C@@]23CCCN2C[C@H](F)C3)nc2c(F)c(-c3ccc(F)c4sc(N)c(C#N)c34)c(Cl)cc12 [Example 47, 2-Amino-4-(6-chloro-8-fluoro-2-(((2R,7aS)-2-fluorotetrahydro-1H-pyrrolizin-7a(5H)-yl)methoxy)-4-((S)-2-(hydroxymethyl)-2-methylpyrrolidin-1-yl)quinazolin-7-yl)-7-fluorobenzo[6] thiophene-3-carbonitrile] | 1.11 | 0.007 | 0.017 |  |
| COC[C@@H]1CCCN1c1nc(OC[C@@]23CCCN2C[C@H](F)C3)nc2c(F)c(-c3ccc(F)c4sc(N)c(C#N)c34)c(Cl)cc12 [Example 48, 2-Amino-4-(6-chloro-8-fluoro-2-(((2R,7a.S)-2-fluorotetrahydro-1H-pyrrolizin-7a(5H)-yl)methoxy)-4-((S)-2-(methoxymethyl)pyrrolidin-1-yl)quinazolin-7-yl)-7-fluorobenzo[b] thiophene-3-carbonitrile] | 3.06 | 0.021 | 0.045 |  |
| N#Cc1c(N)sc2c(F)ccc(-c3c(Cl)cc4c(N5CCC[C@H]5CO)nc(OC[C@@]56CCCN5C[C@H](F)C6)nc4c3F)c12 [Example 49, 2-Amino-4-(6-chloro-8-fluoro-2-(((2R,7aS)-2-fluorotetrahydro-1H-pyrrolizin-7a(5H)-yl)methoxy)-4-((S)-2-(hydroxymethyl)pyrrolidin-1-yl)quinazolin-7-yl)-7-fluorobenzo[b] thiophene-3-carbonitrile] | 0.252 | 0.004 | 0.004 |  |
| N#CC[C@@H]1CCCN1c1nc(OC[C@@]23CCCN2C[C@H](F)C3)nc2c(F)c(-c3ccc(F)c4sc(N)c(C#N)c34)c(Cl)cc12 [Example 50, 2-Amino-4-(6-chloro-4-((S)-2-(cyanomethyl)pyrrolidin-1-yl)-8-fluoro-2-(((2R,7aS)-2-fluorotetrahydro-1H-pyrrolizin-7a(5H)-yl)methoxy)quinazolin-7-yl)-7-fluorobenzo[b] thiophene-3-carbonitrile] | 0.307 | 0.007 | 0.007 |  |
| N#Cc1c(N)sc2c(F)ccc(-c3c(Cl)cc4c(N5CCCCOCC5)nc(OC[C@@]56CCCN5C[C@H](F)C6)nc4c3F)c12 [Example 51, 2-Amino-4-(6-chloro-8-fluoro-2-(((2R,7aS)-2-fluorotetrahydro-1H-pyrrolizin-7a(5H)-yl)methoxy)-4-(1,4-oxazocan-4-yl)quinazolin-7-yl)-7-fluorobenzo[b] thiophene-3-carbonitrile] | 0.089 | 0.002 | 0.002 |  |
| C[C@]1(CO)CCCN1c1nc(OC[C@@]23CCCN2C[C@H](F)C3)nc2c(F)c(-c3ccc(F)c4sc(N)c(C#N)c34)c(Cl)cc12 [Example 52, 2-Amino-4-(6-chloro-8-fluoro-2-(((2R,7aS)-2-fluorotetrahydro-1H-pyrrolizin-7a(5H)-yl)methoxy)-4-((R)-2-(hydroxymethyl)-2-methylpyrrolidin-1-yl)quinazolin-7-yl)-7-fluorobenzo[b] thiophene-3-carbonitrile] | 0.505 | 0.007 | 0.008 |  |
| N#Cc1c(N)sc2c(F)ccc(-c3c(Cl)cc4c(N5CCC[C@H]5C#N)nc(OC[C@@]56CCCN5C[C@H](F)C6)nc4c3F)c12 [Example 53, (2S)-1-(7-(2-Amino-3-cyano-7-fluorobenzo[b]thiophen-4-yl)-6-chloro-8-fluoro-2-(((2R,7aS)-2-fluorotetrahydro-1H-pyrrolizin-7a(5H)-yl)methoxy)quinazolin-4-yl)pyrrolidine-2-carbonitrile] | 0.119 | 0.001 | 0.001 |  |
| N#Cc1c(N)sc2c(F)ccc(-c3c(Cl)cc4c(N5CCC[C@@H](C#N)C5)nc(OC[C@@]56CCCN5C[C@H](F)C6)nc4c3F)c12 [Example 54, (3R)-1-(7-(2-Amino-3-cyano-7-fluorobenzo[b]thiophen-4-yl)-6-chloro-8-fluoro-2-(((2R,7aS)-2-fluorotetrahydro-1H-pyrrolizin-7a(5H)-yl)methoxy)quinazolin-4-yl)piperidine-3-carbonitrile] | 1.09 | 0.013 | 0.014 |  |
| N#Cc1c(N)sc2c(F)ccc(-c3c(Cl)cc4c(N5CCCOCC5)nc(OC[C@@]56CCCN5C[C@H](F)C6)nc4c3F)c12 [Example 55, 2-Amino-4-(6-chloro-8-fluoro-2-(((2R,7aS)-2-fluorotetrahydro-1H-pyrrolizin-7a(5H)-yl)methoxy)-4-(1,4-oxazepan-4-yl)quinazolin-7-yl)-7-fluorobenzo[b]thiophene-3-carbonitrile] | 0.102 | 0.008 | 0.005 |  |

Continued, values first:

| IC50 [1, 4] [µM] | IC50 [2] [µM] | IC50 [3] [µM] | IC50 [1, 5] [µM] | Structure (SMILES) |
| --- | --- | --- | --- | --- |
| 0.061 | 0.003 | 0.003 |  | N#Cc1c(N)sc2c(F)ccc(-c3c(Cl)cc4c(N5CCCCC(C#N)C5)nc(OC[C@@]56CCCN5C[C@H](F)C6)nc4c3F)c12 (stereo partly drawn) [Example 57, 1-(7-(2-Amino-3-cyano-7-fluorobenzo[b]thiophen-4-yl)-6-chloro-8-fluoro-2-(((2R,7aS)-2-fluorotetrahydro-1H-pyrrolizin-7a(5H)-yl)methoxy)quinazolin-4-yl)azepane-3-carbonitrile] |
| 0.05 | 0.003 | 0.005 |  | C=Cc1cc2c(N3CCOCC(C)(O)C3)nc(OC[C@@]34CCCN3C[C@H](F)C4)nc2c(F)c1-c1ccc(F)c2sc(N)c(C#N)c12 (stereo partly drawn) [Example 61, 2-Amino-7-fluoro-4-(8-fluoro-2-(((2R,7aS)-2-fluorotetrahydro-1H-pyrrolizin-7a(5H)-yl)methoxy)-4-(6-hydroxy-6-methyl-1,4-oxazepan-4-yl)-6-vinylquinazolin-7-yl)benzo[b]thiophene-3-carbonitrile] |
|  | 0.001 | 0.003 | 0.025 | CCc1cc2c(N3CCOCC(C)(O)C3)nc(OC[C@@]34CCCN3C[C@H](F)C4)nc2c(F)c1-c1ccc(F)c2sc(N)c(C#N)c12 (stereo partly drawn) [Example 62, 2-Amino-4-(6-ethyl-8-fluoro-2-(((2R,7aS)-2-fluorotetrahydro-1H-pyrrolizin-7a(H)-yl)methoxy)-4-(6-hydroxy-6-methyl-1,4-oxazepan-4-yl)quinazolin-7-yl)-7-fluorobenzo[b]thiophene-3-carbonitrile] |
|  | 0.003 | 0.004 | > 10 | CC1(O)COCCN(c2nc(OC[C@@]34CCCN3C[C@H](F)C4)nc3c(F)c(-c4ccc(F)c5sc(N)c(C#N)c45)c(O)cc23)C1 (stereo partly drawn) [Example 63, 2-Amino-7-fluoro-4-(8-fluoro-2-(((2R,7aS)-2-fluorotetrahydro-1H-pyrrolizin-7a (H)-yl)methoxy)-6-hydroxy-4-(6-hydroxy-6-methyl-1,4-oxazepan-4-yl)quinazolin-7-yl)benzo[b]thiophene-3-carbonitrile] |
| 1.52 | 0.028 | 0.025 |  | N#Cc1c(N)sc2c(F)ccc(-c3c(Cl)cc4c(N5CCCC6(CC(O)C6)C5)nc(OC[C@@]56CCCN5C[C@H](F)C6)nc4c3F)c12 (stereo partly drawn) [Example 64, 2-Amino-4-(6-chloro-8-fluoro-2-(((2R,7aS)-2-fluorotetrahydro-1H-pyrrolizin-7a(5H)-yl)methoxy)-4-(2-hydroxy-6-azaspiro[3.5]nonan-6-yl)quinazolin-7-yl)-7-fluorobenzo[b]thiophene-3-carbonitrile] |
| 0.33 | 0.006 | 0.012 |  | C[C@@H]1[C@H](O)CCN1c1nc(OC[C@@]23CCCN2C[C@H](F)C3)nc2c(F)c(-c3ccc(F)c4sc(N)c(C#N)c34)c(Cl)cc12 [Example 65, 2-Amino-4-(6-chloro-8-fluoro-2-(((2R,7aS)-2-fluorotetrahydro-1H-pyrrolizin-7a(5H)-yl)methoxy)-4-((2R,3R)-3-hydroxy-2-methylpyrrolidin-1-yl)quinazolin-7-yl)-7-fluorobenzo[b] thiophene-3-carbonitrile] |
| 0.586 | 0.016 | 0.024 |  | C[C@@H]1CCCN1c1nc(OC[C@@]23CCCN2C[C@H](F)C3)nc2c(F)c(-c3ccc(F)c4sc(N)c(C#N)c34)c(Cl)cc12 [Example 66, 2-Amino-4-(6-chloro-8-fluoro-2-(((2R,7aS)-2-fluorotetrahydro-1H-pyrrolizin-7a(5H)-yl)methoxy)-4-((R)-2-methylpyrrolidin-1-yl)quinazolin-7-yl)-7-fluorobenzo[b] thiophene-3-carbonitrile] |
